Measurements reported in patent US20110039721A1, “METHOD FOR PREDICTION ABOUT CARCINOGENICITY OF SUBSTANCE IN RODENT” (Chemicals Evaluation and Research Institute, priority 2007, published 2011).

Key:
[1] = tested on: mRNA expressed from the genes (A) to (D) in rat liver; assay: Behavior of genes (mRNA expression level, oligo-DNA microarray) in rat liver after 28-day oral administration; format: in vivo; settings: for Behavior of gene caused by administration of chemical substance, Gene No. 4846 / Behavior of gene caused by administration of chemical substance, Gene No. 2026 / Behavior of gene caused by administration of chemical substance, Gene No. 4218 / Behavior of gene caused by administration of chemical substance, Gene No. 6182 / Behavior of gene caused by administration of chemical substance, Gene No. 5600: gene group (A); for Behavior of gene caused by administration of chemical substance, Gene No. 4846: Unigene No. Rn.144554; for Behavior of gene caused by administration of chemical substance, Gene No. 2026 / Behavior of gene caused by administration of chemical substance, Gene No. 4218: Unigene No. Rn.167075; for Behavior of gene caused by administration of chemical substance, Gene No. 6182: Unigene No. Rn.5834; for Behavior of gene caused by administration of chemical substance, Gene No. 5600: Unigene No. Rn.9836; for Behavior of gene caused by administration of chemical substance, Gene No. 1494 / Behavior of gene caused by administration of chemical substance, Gene No. 2045 / Behavior of gene caused by administration of chemical substance, Gene No. 2203: gene group (B); for Behavior of gene caused by administration of chemical substance, Gene No. 1494: Unigene No. Rn.1430; for Behavior of gene caused by administration of chemical substance, Gene No. 2045: Unigene No. Rn.19329; for Behavior of gene caused by administration of chemical substance, Gene No. 2203: Unigene No. Rn.21240; for Behavior of gene caused by administration of chemical substance, Gene No. 533 / Behavior of gene caused by administration of chemical substance, Gene No. 725 / Behavior of gene caused by administration of chemical substance, Gene No. 1163 / Behavior of gene caused by administration of chemical substance, Gene No. 4973 / Behavior of gene caused by administration of chemical substance, Gene No. 4095 / Behavior of gene caused by administration of chemical substance, Gene No. 1334 / Behavior of gene caused by administration of chemical substance, Gene No. 6620 / Behavior of gene caused by administration of chemical substance, Gene No. 6303 / Behavior of gene caused by administration of chemical substance, Gene No. 5878 / Behavior of gene caused by administration of chemical substance, Gene No. 1131 / Behavior of gene caused by administration of chemical substance, Gene No. 1562 / Behavior of gene caused by administration of chemical substance, Gene No. 1741 / Behavior of gene caused by administration of chemical substance, Gene No. 893 / Behavior of gene caused by administration of chemical substance, Gene No. 6026 / Behavior of gene caused by administration of chemical substance, Gene No. 154 / Behavior of gene caused by administration of chemical substance, Gene No. 1993 / Behavior of gene caused by administration of chemical substance, Gene No. 813 / Behavior of gene caused by administration of chemical substance, Gene No. 2494 / Behavior of gene caused by administration of chemical substance, Gene No. 2546 / Behavior of gene caused by administration of chemical substance, Gene No. 3776 / Behavior of gene caused by administration of chemical substance, Gene No. 3929 / Behavior of gene caused by administration of chemical substance, Gene No. 1119 / Behavior of gene caused by administration of chemical substance, Gene No. 6742 / Behavior of gene caused by administration of chemical substance, Gene No. 5634: gene group (C); for Behavior of gene caused by administration of chemical substance, Gene No. 533: Unigene No. Rn.106184; for Behavior of gene caused by administration of chemical substance, Gene No. 725: Unigene No. Rn.108075; for Behavior of gene caused by administration of chemical substance, Gene No. 1163: Unigene No. Rn.11766; for Behavior of gene caused by administration of chemical substance, Gene No. 4973: Unigene No. Rn.118529; for Behavior of gene caused by administration of chemical substance, Gene No. 4095: Unigene No. Rn.119024; for Behavior of gene caused by administration of chemical substance, Gene No. 1334 / Behavior of gene caused by administration of chemical substance, Gene No. 6620: Unigene No. Rn.120914; for Behavior of gene caused by administration of chemical substance, Gene No. 6303: Unigene No. Rn.123063; for Behavior of gene caused by administration of chemical substance, Gene No. 5878: Unigene No. Rn.143213; for Behavior of gene caused by administration of chemical substance, Gene No. 1131: Unigene No. Rn.144946; for Behavior of gene caused by administration of chemical substance, Gene No. 1562: Unigene No. Rn.14744; for Behavior of gene caused by administration of chemical substance, Gene No. 1741: Unigene No. Rn.1647; for Behavior of gene caused by administration of chemical substance, Gene No. 893: Unigene No. Rn.164817; for Behavior of gene caused by administration of chemical substance, Gene No. 6026: Unigene No. Rn.167685; for Behavior of gene caused by administration of chemical substance, Gene No. 154: Unigene No. Rn.185941; for Behavior of gene caused by administration of chemical substance, Gene No. 1993: Unigene No. Rn.18728; for Behavior of gene caused by administration of chemical substance, Gene No. 813: Unigene No. Rn.201760; for Behavior of gene caused by administration of chemical substance, Gene No. 2494: Unigene No. Rn.23969; for Behavior of gene caused by administration of chemical substance, Gene No. 2546: Unigene No. Rn.24561; for Behavior of gene caused by administration of chemical substance, Gene No. 3776: Unigene No. Rn.43232; for Behavior of gene caused by administration of chemical substance, Gene No. 3929: Unigene No. Rn.4620; for Behavior of gene caused by administration of chemical substance, Gene No. 1119: Unigene No. Rn.9757; for Behavior of gene caused by administration of chemical substance, Gene No. 6742: Unigene No. Rn.9779; for Behavior of gene caused by administration of chemical substance, Gene No. 5634: Unigene No. Rn.9862; for Behavior of gene caused by administration of chemical substance, Gene No. 5726: gene group (D), Unigene No. Rn.9939
Outline: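 Oral gavage, once daily × 28 days; male F344 SPF rats, 5 wk, n=4/group; vehicle controls given equal solvent volume. Liver excised day 28, total RNA purified. Significance: ≥1.5× or ≤1/1.5 of vehicle, direction concordant with other carcinogens.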

[2] = tested on: liver; settings: classification of the substance (Cr+/Cr−); cited from earlier work
[3] = tested on: rodent; settings: classification of the substance (C+/C−); cited from earlier work
[4] = classification of the substance (M+/M−); cited from earlier work

## CC1CCC(C(C)C)C(O)C1 (racemic) [TS034, DL-Menthol]
[1]
  Behavior of gene caused by administration of chemical substance, Gene No. 4846: −
  Behavior of gene caused by administration of chemical substance, Gene No. 2026: +
  Behavior of gene caused by administration of chemical substance, Gene No. 4218: −
  Behavior of gene caused by administration of chemical substance, Gene No. 6182: −
  Behavior of gene caused by administration of chemical substance, Gene No. 5600: −
  Behavior of gene caused by administration of chemical substance, Gene No. 1494: +
  Behavior of gene caused by administration of chemical substance, Gene No. 2045: +
  Behavior of gene caused by administration of chemical substance, Gene No. 2203: +
  Behavior of gene caused by administration of chemical substance, Gene No. 533: +
  Behavior of gene caused by administration of chemical substance, Gene No. 725: −
  Behavior of gene caused by administration of chemical substance, Gene No. 1163: −
  Behavior of gene caused by administration of chemical substance, Gene No. 4973: −
  Behavior of gene caused by administration of chemical substance, Gene No. 4095: −
  Behavior of gene caused by administration of chemical substance, Gene No. 1334: −
  Behavior of gene caused by administration of chemical substance, Gene No. 6620: −
  Behavior of gene caused by administration of chemical substance, Gene No. 6303: +
  Behavior of gene caused by administration of chemical substance, Gene No. 5878: −
  Behavior of gene caused by administration of chemical substance, Gene No. 1131: −
  Behavior of gene caused by administration of chemical substance, Gene No. 1562: −
  Behavior of gene caused by administration of chemical substance, Gene No. 1741: −
  Behavior of gene caused by administration of chemical substance, Gene No. 893: −
  Behavior of gene caused by administration of chemical substance, Gene No. 6026: −
  Behavior of gene caused by administration of chemical substance, Gene No. 154: +
  Behavior of gene caused by administration of chemical substance, Gene No. 1993: −
  Behavior of gene caused by administration of chemical substance, Gene No. 813: −
  Behavior of gene caused by administration of chemical substance, Gene No. 2494: −
  Behavior of gene caused by administration of chemical substance, Gene No. 2546: −
  Behavior of gene caused by administration of chemical substance, Gene No. 3776: −
  Behavior of gene caused by administration of chemical substance, Gene No. 3929: −
  Behavior of gene caused by administration of chemical substance, Gene No. 1119: −
  Behavior of gene caused by administration of chemical substance, Gene No. 6742: −
  Behavior of gene caused by administration of chemical substance, Gene No. 5634: −
  Behavior of gene caused by administration of chemical substance, Gene No. 5726: −
[2]
  Liver carcinogenicity: Cr−
[3]
  Carcinogenicity: C−
[4]
  Mutagenicity by Ames test: M−

## CCC1(c2ccccc2)C(=O)NC(=O)NC1=O [TS008, Phenobarbital]
[1]; mRNA vs vehicle control group
  Behavior of gene caused by administration of chemical substance, Gene No. 4846: +
  Behavior of gene caused by administration of chemical substance, Gene No. 2026: −
  Behavior of gene caused by administration of chemical substance, Gene No. 4218: −
  Behavior of gene caused by administration of chemical substance, Gene No. 6182: −
  Behavior of gene caused by administration of chemical substance, Gene No. 5600: −
  Behavior of gene caused by administration of chemical substance, Gene No. 1494: +
  Behavior of gene caused by administration of chemical substance, Gene No. 2045: −
  Behavior of gene caused by administration of chemical substance, Gene No. 2203: −
  Behavior of gene caused by administration of chemical substance, Gene No. 533: +
  Behavior of gene caused by administration of chemical substance, Gene No. 725: +
  Behavior of gene caused by administration of chemical substance, Gene No. 1163: −
  Behavior of gene caused by administration of chemical substance, Gene No. 4973: +
  Behavior of gene caused by administration of chemical substance, Gene No. 4095: +
  Behavior of gene caused by administration of chemical substance, Gene No. 1334: +
  Behavior of gene caused by administration of chemical substance, Gene No. 6620: +
  Behavior of gene caused by administration of chemical substance, Gene No. 6303: +
  Behavior of gene caused by administration of chemical substance, Gene No. 5878: −
  Behavior of gene caused by administration of chemical substance, Gene No. 1131: −
  Behavior of gene caused by administration of chemical substance, Gene No. 1562: +
  Behavior of gene caused by administration of chemical substance, Gene No. 1741: +
  Behavior of gene caused by administration of chemical substance, Gene No. 893: +
  Behavior of gene caused by administration of chemical substance, Gene No. 6026: +
  Behavior of gene caused by administration of chemical substance, Gene No. 154: +
  Behavior of gene caused by administration of chemical substance, Gene No. 1993: +
  Behavior of gene caused by administration of chemical substance, Gene No. 813: +
  Behavior of gene caused by administration of chemical substance, Gene No. 2494: +
  Behavior of gene caused by administration of chemical substance, Gene No. 2546: +
  Behavior of gene caused by administration of chemical substance, Gene No. 3776: −
  Behavior of gene caused by administration of chemical substance, Gene No. 3929: +
  Behavior of gene caused by administration of chemical substance, Gene No. 1119: +
  Behavior of gene caused by administration of chemical substance, Gene No. 6742: +
  Behavior of gene caused by administration of chemical substance, Gene No. 5634: +
  Behavior of gene caused by administration of chemical substance, Gene No. 5726: −
[4]
  Mutagenicity by Ames test: M−
